Measurements from patent publication US11053204B2, “Pyrimidinyloxy benzene derivatives as herbicides” (FMC Corporation, priority 2015, dated 2021).

Legend:
Assay type in all cases: in vivo
[1] = tested on: sedge, umbrella (small-flower umbrella sedge, Cyperus difformis); experiment: Test B flooded paddy test, plant response rating; conditions: Cyperus difformis, 312 h; 250 g ai/ha; Flood; scale of 0 to 100 where 0 is no effect and 100 is complete control; 13 to 15 days
Summary of the method: (§1)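 Pots were flooded to 3 cm above the soil surface at treatment, compound applied directly to the paddy water, and that depth held throughout. Plants were kept in a greenhouse for 13 to 15 days, then visually rated against untreated controls.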

[2] = tested on: ducksalad (Heteranthera limosa); experiment: Test B flooded paddy test, plant response rating; conditions: Heteranthera limosa, 312 h; 250 g ai/ha; Flood; scale of 0 to 100 where 0 is no effect and 100 is complete control; 13 to 15 days
Summary of the method: as §1

[3] = tested on: barnyardgrass (Echinochloa crus-galli); experiment: Test B flooded paddy test, plant response rating; conditions: Echinochloa crus-galli, 312 h; 250 g ai/ha; Flood; scale of 0 to 100 where 0 is no effect and 100 is complete control; 13 to 15 days
Summary of the method: as §1

[4] = tested on: rice (Oryza sativa); experiment: Test B flooded paddy test, plant response rating; conditions: Oryza sativa, 312 h; 250 g ai/ha; Flood; scale of 0 to 100 where 0 is no effect and 100 is complete control; 13 to 15 days
Summary of the method: as §1

[5] = tested on: ragweed (common ragweed, Ambrosia elatior); experiment: Test C preemergence, plant response rating; conditions: scale 0 to 100; for Ragweed plant response rating: preemergence
Summary of the method: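 Preemergence: seeds sown in loam–sand blend or silt loam and sprayed with test chemicals in a non-phytotoxic surfactant-containing solvent. Postemergence: potted plants at 2–18 cm (1–4-leaf stage) sprayed with the same formulation. After 13–15 d in greenhouse, visual rating versus controls on 0 (no effect) to 100 (complete control) scale.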

[6] = tested on: ragweed (common ragweed, Ambrosia elatior); experiment: Test A preemergence, visual injury rating; conditions: Ambrosia artemisiifolia, pre-emergence, 240 h, 0 to 100 scale (0 no effect, 100 complete control), read-out: Ragweed plant response rating
Summary of the method: (§2)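 Greenhouse pot test, loam/sand soil. Formulation: non-phytotoxic solvent mix plus surfactant. Pre: directed spray onto soil after sowing. Post: plants at 1–2 leaf, 2–10 cm. Rated visually vs untreated controls at ~10 d, 0 (no effect) to 100 (complete control).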

[7] = tested on: pigweed (Amaranthus retroflexus); experiment: Test A preemergence, visual injury rating; conditions: Amaranthus retroflexus, pre-emergence, 240 h, 0 to 100 scale (0 no effect, 100 complete control), read-out: Pigweed plant response rating
Summary of the method: as §2

[8] = tested on: barnyardgrass (Echinochloa crus-galli); experiment: Test A preemergence, visual injury rating; conditions: Echinochloa crus-galli, pre-emergence, 240 h, 0 to 100 scale (0 no effect, 100 complete control), read-out: Barnyardgrass plant response rating
Summary of the method: as §2

[9] = tested on: kochia (Kochia scoparia); experiment: Test A preemergence, visual injury rating; conditions: Bassia scoparia, pre-emergence, 240 h, 0 to 100 scale (0 no effect, 100 complete control), read-out: Kochia plant response rating
Summary of the method: as §2

[10] = tested on: giant foxtail (Setaria faberii); experiment: Test A preemergence, visual injury rating; conditions: Setaria faberi, pre-emergence, 240 h, 0 to 100 scale (0 no effect, 100 complete control), read-out: Foxtail, Giant plant response rating
Summary of the method: as §2

[11] = tested on: Italian ryegrass (Lolium multiflorum); experiment: Test A preemergence, visual injury rating; conditions: Lolium multiflorum, pre-emergence, 240 h, 0 to 100 scale (0 no effect, 100 complete control), read-out: Ryegrass, Italian plant response rating
Summary of the method: as §2

[12] = tested on: blackgrass (Alopecurus myosuroides); experiment: Test A postemergence, visual injury rating; conditions: Alopecurus myosuroides, post-emergence, 240 h, 0 is no effect, 100 is complete control, read-out: Blackgrass plant response rating (0 to 100 scale)
Summary of the method: as §2

[13] = tested on: wheat (Triticum aestivum); experiment: Test A postemergence, visual injury rating; conditions: Triticum aestivum, post-emergence, 240 h, 0 is no effect, 100 is complete control, read-out: Wheat plant response rating (0 to 100 scale)
Summary of the method: as §2

[14] = tested on: ragweed (common ragweed, Ambrosia elatior); experiment: Test A postemergence, visual injury rating; conditions: Ambrosia artemisiifolia, post-emergence, 240 h, 0 is no effect, 100 is complete control, read-out: Ragweed plant response rating (0 to 100 scale)
Summary of the method: as §2

[15] = tested on: pigweed (Amaranthus retroflexus); experiment: Test A postemergence, visual injury rating; conditions: Amaranthus retroflexus, post-emergence, 240 h, 0 is no effect, 100 is complete control, read-out: Pigweed plant response rating (0 to 100 scale)
Summary of the method: as §2

[16] = tested on: corn (Zea mays); experiment: Test A postemergence, visual injury rating; conditions: Zea mays, post-emergence, 240 h, 0 is no effect, 100 is complete control, read-out: Corn plant response rating (0 to 100 scale)
Summary of the method: as §2

[17] = tested on: barnyardgrass (Echinochloa crus-galli); experiment: Test A postemergence, visual injury rating; conditions: Echinochloa crus-galli, post-emergence, 240 h, 0 is no effect, 100 is complete control, read-out: Barnyardgrass plant response rating (0 to 100 scale)
Summary of the method: as §2

[18] = tested on: galium (catchweed bedstraw, Galium aparine); experiment: Test A postemergence, visual injury rating; conditions: Galium, post-emergence, 240 h, 0 is no effect, 100 is complete control, read-out: Galium plant response rating (0 to 100 scale)
Summary of the method: as §2

[19] = tested on: kochia (Kochia scoparia); experiment: Test A postemergence, visual injury rating; conditions: Bassia scoparia, post-emergence, 240 h, 0 is no effect, 100 is complete control, read-out: Kochia plant response rating (0 to 100 scale)
Summary of the method: as §2

[20] = tested on: giant foxtail (Setaria faberii); experiment: Test A postemergence, visual injury rating; conditions: Setaria faberi, post-emergence, 240 h, 0 is no effect, 100 is complete control, read-out: Foxtail, Giant plant response rating (0 to 100 scale)
Summary of the method: as §2

[21] = tested on: Italian ryegrass (Lolium multiflorum); experiment: Test A postemergence, visual injury rating; conditions: Lolium multiflorum, post-emergence, 240 h, 0 is no effect, 100 is complete control, read-out: Ryegrass, Italian plant response rating (0 to 100 scale)
Summary of the method: as §2

For `CCCOC(=O)c1c(Br)cccc1Oc1ncc(Cl)cn1` [Compound 13, propyl 2-bromo-6-[(5-chloro-2-pyrimidinyl)oxy]benzoate], the pest or weed control at 250 g/ha [1] was 75%, the pest or weed control at 250 g/ha [2] was 70% and the pest or weed control at 250 g/ha [3] was 0%. It also gave a plant injury at 250 g/ha [4] of 30%, a pest or weed control at 16 g/ha ([5]; Ambrosia artemisiifolia, pre-emergence, Preemergence, 16 g ai/ha) of 0% and a pest or weed control at 31 g/ha ([5]; Ambrosia artemisiifolia, pre-emergence, Preemergence, 31 g ai/ha) of 10%. The “Ragweed plant response rating” value ([5]; 4 g ai/ha) was 0, the “Ragweed plant response rating” value ([5]; 8 g ai/ha) was 0 and the pest or weed control at 125 g/ha ([6]; 125 g ai/ha) was 0%. It also gave a pest or weed control at 500 g/ha ([6]; 500 g ai/ha) of 0%, a pest or weed control at 125 g/ha ([7]; 125 g ai/ha) of 100% and a pest or weed control at 500 g/ha ([7]; 500 g ai/ha) of 100%. It also gave a pest or weed control at 125 g/ha ([8]; 125 g ai/ha) of 100%, a pest or weed control at 500 g/ha ([8]; 500 g ai/ha) of 100% and a pest or weed control at 125 g/ha ([9]; 125 g ai/ha) of 90%. For the same compound, the pest or weed control at 500 g/ha ([9]; 500 g ai/ha) was 100%, the pest or weed control at 125 g/ha ([10]; 125 g ai/ha) was 100% and the pest or weed control at 500 g/ha ([10]; 500 g ai/ha) was 100%. The pest or weed control at 125 g/ha ([11]; 125 g ai/ha) was 10%, the pest or weed control at 500 g/ha ([11]; 500 g ai/ha) was 90% and the pest or weed control at 125 g/ha ([12]; 125 g ai/ha) was 30%. The pest or weed control at 500 g/ha ([12]; 500 g ai/ha) was 70%, the plant injury at 125 g/ha ([13]; 125 g ai/ha) was 20% and the plant injury at 500 g/ha ([13]; 500 g ai/ha) was 30%. The pest or weed control at 125 g/ha ([14]; 125 g ai/ha) was 0%, the pest or weed control at 500 g/ha ([14]; 500 g ai/ha) was 20% and the pest or weed control at 125 g/ha ([15]; 125 g ai/ha) was 90%. For the same compound, the pest or weed control at 500 g/ha ([15]; 500 g ai/ha) was 100%, the plant injury at 125 g/ha ([16]; 125 g ai/ha) was 30% and the plant injury at 500 g/ha ([16]; 500 g ai/ha) was 90%. It also gave a pest or weed control at 125 g/ha ([17]; 125 g ai/ha) of 80%, a pest or weed control at 500 g/ha ([17]; 500 g ai/ha) of 100% and a pest or weed control at 125 g/ha ([18]; 125 g ai/ha) of 100%. For the same compound, the pest or weed control at 500 g/ha ([18]; 500 g ai/ha) was 100%, the pest or weed control at 125 g/ha ([19]; 125 g ai/ha) was 100% and the pest or weed control at 500 g/ha ([19]; 500 g ai/ha) was 100%. It also gave a pest or weed control at 125 g/ha ([20]; 125 g ai/ha) of 80%, a pest or weed control at 500 g/ha ([20]; 500 g ai/ha) of 100% and a pest or weed control at 125 g/ha ([21]; 125 g ai/ha) of 0%. The pest or weed control at 500 g/ha ([21]; 500 g ai/ha) was 100%.
